IC50 data for 58 molecules are collected here from US20250304537A1 (Repare Therapeutics Inc., priority 2022, published 2025).

The first assay relates to PKMYT1 (CDK1 pThr14) in FUOV1 cells. Briefly: PKMYT1 cell-based activity assay, CDK1 pThr14 AlphaLISA in FUOV1 cells. The following applies: 2 h, 2 hours with compound, read-out: FUOV-1 CDK1 pThr14 IC50. An outline of the steps:
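IC50 was derived from AlphaLISA signal (excitation 680 nm, emission 615 nm) for phospho-Thr14 CDK1 in lysates. The detection antibodies were rabbit anti-pThr14 and mouse anti-total CDK1, each at 5 nM. FUOV1 ovarian cells were exposed to compound for 2 hours before lysis.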
For the molecule `Cc1ccc2[nH]ncc2c1-c1nc(-c2cc(F)cnc2N[C@@H]2CCOC[C@H]2O)nc(C(N)=O)c1N` [Compound 799, 5-amino-2-(5-fluoro-2-(((3S,4R)-3-hydroxytetrahydro-2H-pyran-4-yl)amino)pyridin-3-yl)-6-(5-methyl-1H-indazol-4-yl)pyrimidine-4-carboxamide], the concentration for half-maximal inhibition (IC50) was > 10 µM. The same measure, in the same setting: in the case of `Cc1ccc2[nH]ncc2c1-c1nc(-c2cc(F)cnc2N[C@H]2CCOC[C@@H]2O)nc(C(N)=O)c1N` [Compound 801] it was > 10 µM; in that of `Cc1ccc2[nH]ncc2c1-c1nc(-c2ccc(Cl)nc2NC2CC(F)(F)C2)nc(C(N)=O)c1N` [Compound 802], 0.743 µM; in that of `Cc1ccc2[nH]ncc2c1-c1nc(-c2ccc(Cl)nc2NC2CCOCC2)nc(C(N)=O)c1N` [Compound 803], 0.074 µM. Consider `Cc1ccc2[nH]ncc2c1-c1nc(-c2cccnc2Nc2nc(F)ccc2F)nc(C(N)=O)c1O` [Compound 806, 2-(2-((3,6-difluoropyridin-2-yl)amino)pyridin-3-yl)-5-hydroxy-6-(5-methyl-1H-indazol-4-yl)pyrimidine-4-carboxamide], for which the IC50 was > 10 µM. As to `Cc1ccc2[nH]ncc2c1-c1nc(-c2ccc(C#N)nc2NC2CC(F)(F)C2)nc(C(N)=O)c1N` [Compound 809], the 50% inhibitory concentration (IC50) stood at 0.272 µM.

For `Cc1ccc2[nH]ncc2c1-c1nc(-c2ccc(C#N)nc2NC2CCOCC2)nc(C(N)=O)c1N` [Compound 810], the half-inhibitory concentration (IC50) amounted to 0.096 µM.

Regarding `Cc1ccc2[nH]ncc2c1-c1nc(-c2ccc(F)cc2NC2CS(=O)(=O)C2)nc(C(N)=O)c1N` [Compound 811, 5-amino-2-(2-((1,1-dioxidothietan-3-yl)amino)-4-fluorophenyl)-6-(5-methyl-1H-indazol-4-yl)pyrimidine-4-carboxamide], the IC50 is 0.03 µM. Same read-out and setting: in the case of `Cc1ccc2[nH]ncc2c1-c1nc(-c2cc(F)cnc2N[C@H]2CC[C@H](O)C2)nc(C(N)=O)c1N` [Compound 812] it was 0.026 µM; in that of `Cc1ccc2[nH]ncc2c1-c1nc(-c2cc(F)cnc2N[C@H]2COC[C@@H]2O)nc(C(N)=O)c1N` [Compound 813], 0.123 µM; in that of `Cc1ccc2[nH]ncc2c1-c1nc(-c2cc(F)cnc2N[C@@H]2COC[C@@H]2O)nc(C(N)=O)c1N` [Compound 814], 0.071 µM. On to `Cc1ccc2[nH]ncc2c1-c1nc(-c2cc(F)cnc2N[C@H]2COC[C@H]2O)nc(C(N)=O)c1N` [Compound 815], for which the IC50 worked out at 0.511 µM. `Cc1ccc2[nH]ncc2c1-c1nc(-c2ccccc2-c2ccn[nH]2)nc(C(N)=O)c1N` [Compound 816]: the IC50 was > 10 µM.

On to `Cc1ccc2[nH]ncc2c1-c1nc(-c2ccc(F)nc2NC2CS(=O)(=O)C2)nc(C(N)=O)c1N` [Compound 819], for which the IC50 was determined as 0.023 µM.

For `Cc1ccc2[nH]ncc2c1-c1nc(-c2ccccc2[S+](C)[O-])nc(C(N)=O)c1N` (stereo not shown) [Compound 820], the half-inhibitory concentration (IC50) stood at 0.229 µM. On to `Cc1ccc2[nH]ncc2c1-c1nc(-c2ccc(C#N)cc2N[C@H]2C[C@](C)(O)C2)nc(C(N)=O)c1N` [Compound 821], for which the concentration for half-maximal inhibition (IC50) worked out at 0.071 µM. Still for that read-out and setting: with `Cc1ccc2[nH]ncc2c1-c1nc(-c2ccc(C#N)cc2N[C@H]2C[C@@](C)(O)C2)nc(C(N)=O)c1N` [Compound 822] the figure was 0.172 µM; with `Cc1ccc2[nH]ncc2c1-c1nc(-c2cc(F)cnc2NC2CC(O)C2(C)C)nc(C(N)=O)c1N` (stereo not shown) [Compound 823], 0.036 µM; with `[2H]C([2H])([2H])c1ccc2[nH]ncc2c1-c1nc(-c2cccnc2Nc2nc(C)ccc2F)nc(C(N)=O)c1N` [Compound 824], 0.002 µM. The same measure, in the same setting: with `Cc1ccc2[nH]ncc2c1-c1nc(-c2ccc(Cl)nc2Nc2nccnc2F)nc(C(N)=O)c1N` [Compound 825] the figure was 0.009 µM; with `COc1nccnc1Nc1nc(Cl)ccc1-c1nc(C(N)=O)c(N)c(-c2c(C)ccc3[nH]ncc23)n1` [Compound 826], 0.012 µM; with `Cc1ccc(F)c(Nc2ncccc2-c2cc(C(N)=O)c(N)c(-c3c(C)ccc4[nH]ncc34)n2)n1` [Compound 827, 5-amino-2′-((3-fluoro-6-methylpyridin-2-yl)amino)-6-(5-methyl-1H-indazol-4-yl)-[2,3′-bipyridine]-4-carboxamide], 0.012 µM. On the same count and under the same terms, in the case of `Cc1ccc2[nH]ncc2c1-c1nc(-c2cc(F)cnc2N[C@H]2CC[C@@H](O)CC2)nc(C(N)=O)c1N` [Compound 828] it was 0.03 µM; in that of `Cc1ccc2[nH]ncc2c1-c1nc(-c2ccc(Cl)nc2Nc2cccnn2)nc(C(N)=O)c1N` [Compound 832], 0.217 µM; in that of `Cc1ccc2[nH]ncc2c1-c1nc(-c2cc(F)cnc2N[C@@H]2CC[C@H](O)C2)nc(C(N)=O)c1N` [Compound 833], 0.047 µM. Turning to `Cc1ccc2[nH]ncc2c1-c1nc(-c2cc(F)cnc2NC2CCN(C)CC2)nc(C(N)=O)c1N` [Compound 838], the IC50 worked out at 0.055 µM. In the case of `Cc1ccc2[nH]ncc2c1-c1nc(-c2cc(Cl)ncc2NC2CC(F)(F)C2)nc(C(N)=O)c1N` [Compound 840], the IC50 is 0.054 µM. As to `Cc1ccc2[nH]ncc2c1-c1nc(-c2cc(F)cnc2OC2CC(C)(O)C2)nc(C(N)=O)c1N` (stereo not shown) [Compound 841], the half-maximal inhibitory concentration (IC50) is 1.12 µM.

As for `Cc1ccc2[nH]ncc2c1-c1nc(-c2cccnc2Nc2nc(C(F)F)ccc2F)nc(C(N)=O)c1N` [Compound 842], the IC50 was 0.003 µM. Same read-out and setting: in the case of `Cc1ccc2[nH]ncc2c1-c1nc(-c2cc(F)ncc2NC2CC(F)(F)C2)nc(C(N)=O)c1N` [Compound 844] it was 0.038 µM; in that of `Cc1ccc2[nH]ncc2c1-c1nc(-c2cccnc2Nc2ncccc2F)cc(C(N)=O)c1N` [Compound 846], 0.012 µM; in that of `Cc1c(F)cc2[nH]ncc2c1-c1nc(-c2cc(F)cnc2N[C@H]2CCOC2)nc(C(N)=O)c1N` [Compound 847], 0.022 µM.

Regarding `Cc1c(F)cc2[nH]ncc2c1-c1nc(-c2cccnc2NC2CC2)nc(C(N)=O)c1N` [Compound 848], the IC50 was 0.078 µM. On the same count and under the same terms, in the case of `Cc1c(F)cc2[nH]ncc2c1-c1nc(-c2cccnc2NCC(F)(F)F)nc(C(N)=O)c1N` [Compound 849] it was 0.174 µM; in that of `Cc1ccc(F)c(Nc2nc(F)ccc2-c2nc(C(N)=O)c(N)c(-c3c(C)c(F)cc4[nH]ncc34)n2)n1` [Compound 850], 0.005 µM.

`Cc1ccc2[nH]ncc2c1-c1nc(-c2cc(F)cnc2N[C@@H]2CC[C@@H](O)C2)nc(C(N)=O)c1N` [Compound 851]: the IC50 turned out to be 0.044 µM.

With `Cc1ccc2[nH]ncc2c1-c1nc(-c2cc(F)cnc2NCCN2CCCC2)nc(C(N)=O)c1N` [Compound 853], the IC50 turned out to be 0.538 µM. On the same count and under the same terms, in the case of `Cc1c(F)cc2[nH]ncc2c1-c1nc(-c2ccc(F)nc2Nc2nccnc2C(F)F)nc(C(N)=O)c1N` [Compound 854] it was 0.088 µM; in that of `Cc1c(F)cc2[nH]ncc2c1-c1nc(-c2ccc(C(F)F)nc2Nc2ncccc2F)nc(C(N)=O)c1N` [Compound 855], 0.013 µM; in that of `Cc1ccc2[nH]ncc2c1-c1nc(-c2cnsc2NC2CCOCC2)nc(C(N)=O)c1N` [Compound 856], 0.035 µM. Turning to `Cc1ccc2[nH]ncc2c1-c1nc(-c2ccc(F)cc2NC2CCOCC2)nc(C(N)=O)c1N` [Compound 857], the half-inhibitory concentration (IC50) stood at 0.075 µM. The same measure, in the same setting: with `Cc1c(F)cc2[nH]ncc2c1-c1nc(-c2ccc(F)nc2Nc2nc(C(F)F)ccc2F)nc(C(N)=O)c1N` [Compound 858] the figure was 0.007 µM; with `Cc1c(F)cc2[nH]ncc2c1-c1nc(-c2cc(F)cnc2NCC(C)(C)C#N)nc(C(N)=O)c1N` [Compound 859], 0.041 µM; with `Cc1ccc2[nH]ncc2c1-c1nc(-c2ccc(F)cc2N[C@H]2C[C@@H](O)C2)nc(C(N)=O)c1N` [Compound 860], 0.232 µM. Same read-out and setting: with `Cc1ccc2[nH]ncc2c1-c1nc(-c2ccc(F)cc2N[C@H]2C[C@](C)(O)C2)nc(C(N)=O)c1N` [Compound 861] the figure was 0.095 µM. With `Cc1ccc2[nH]ncc2c1-c1nc(-c2ccc(F)cc2N[C@H]2C[C@@](C)(O)C2)nc(C(N)=O)c1N` [Compound 862], the IC50 was determined as 0.121 µM. Still for that read-out and setting: in the case of `Cc1ccc2[nH]ncc2c1-c1nc(-c2cc(F)cnc2NC2CCN(CC(F)(F)F)CC2)nc(C(N)=O)c1N` [Compound 863] it was 2.08 µM. The same measure, in the same setting: in the case of `Cc1cc(F)c2[nH]ncc2c1-c1nc(-c2ccc(F)nc2Nc2ncccc2F)nc(C(N)=O)c1N` [Compound 864] it was 0.009 µM; in that of `Cc1c(F)cc2[nH]ncc2c1-c1nc(-c2ccc(F)cc2Nc2ncccc2C#N)nc(C(N)=O)c1N` [Compound 865], 0.01 µM. As for `Cc1ccc2[nH]ncc2c1-c1nc(-c2cccnc2NC(C)C)cc(C(N)=O)c1N` [Compound 866, 5-amino-2′-(isopropylamino)-6-(5-methyl-1H-indazol-4-yl)-[2,3′-bipyridine]-4-carboxamide], the half-inhibitory concentration (IC50) stood at 0.062 µM. Same read-out and setting: with `Cc1cc(F)c2[nH]ncc2c1-c1nc(-c2ccc(F)nc2Nc2nc(C(F)F)ccc2F)nc(C(N)=O)c1N` [Compound 867] the figure was 0.014 µM; with `Cc1cc(F)c2[nH]ncc2c1-c1nc(-c2ccc(F)nc2Nc2nccnc2C(F)F)nc(C(N)=O)c1N` [Compound 868], 0.139 µM. Take `Cc1cc(F)c2[nH]ncc2c1-c1nc(-c2cc(F)cnc2N[C@H]2CCOC2)nc(C(N)=O)c1N` [Compound 869]: the IC50 turned out to be 0.055 µM. Same read-out and setting: in the case of `Cc1cc(F)c2[nH]ncc2c1-c1nc(-c2cccnc2NC2CC2)nc(C(N)=O)c1N` [Compound 871] it was 0.039 µM; in that of `Cc1cc(F)c2[nH]ncc2c1-c1nc(-c2cccnc2NCC(F)(F)F)nc(C(N)=O)c1N` [Compound 872], 0.147 µM. Regarding `Cc1cc(F)c2[nH]ncc2c1-c1nc(-c2cc(F)cnc2NCC(C)(C)C#N)nc(C(N)=O)c1N` [Compound 874], the half-inhibitory concentration (IC50) was 0.121 µM.

Still in this assay, the particulars now being: 2 hours with compound, read-out: FUOV-1 CDK1 pThr14 IC50.
`Cc1ccc2[nH]ncc2c1-c1nc(-c2cc(F)cnc2N[C@@H]2C[C@H]3CC[C@@H]2O3)nc(C(N)=O)c1N` [Compound 836]: the concentration for half-maximal inhibition (IC50) was 0.015 µM. On the same count and under the same terms, in the case of `Cc1ccc2[nH]ncc2c1-c1nc(-c2cc(F)cnc2N[C@@H]2C[C@@H]3CC[C@H]2O3)nc(C(N)=O)c1N` [Compound 837] it was 0.022 µM.
